Results from BigSolDB 2.1.

## N[C@@H](Cc1c[nH]c2ccccc12)C(=O)O
In acetone, 278.15 K
  solubility (mole fraction): 0.0001
In acetone, 283.15 K
  solubility (mole fraction): 0.00011
In acetone, 288.15 K
  solubility (mole fraction): 0.00013
In acetone, 293.15 K
  solubility (mole fraction): 0.00015
In acetone, 298.15 K
  solubility (mole fraction): 0.00018
In acetone, 303.15 K
  solubility (mole fraction): 0.00022
In acetone, 308.15 K
  solubility (mole fraction): 0.00026
In acetone, 313.15 K
  solubility (mole fraction): 0.00031
In acetone, 318.15 K
  solubility (mole fraction): 0.00037
In acetone, 323.15 K
  solubility (mole fraction): 0.00045
In acetone, 328.15 K
  solubility (mole fraction): 0.00056
In acetone, 333.15 K
  solubility (mole fraction): 0.00069
In acetonitrile, 278.15 K
  solubility (mole fraction): 1e-05
In acetonitrile, 283.15 K
  solubility (mole fraction): 2e-05
In acetonitrile, 288.15 K
  solubility (mole fraction): 2e-05
In acetonitrile, 293.15 K
  solubility (mole fraction): 3e-05
In acetonitrile, 298.15 K
  solubility (mole fraction): 4e-05
In acetonitrile, 303.15 K
  solubility (mole fraction): 5e-05
In acetonitrile, 308.15 K
  solubility (mole fraction): 7e-05
In acetonitrile, 313.15 K
  solubility (mole fraction): 8e-05
In acetonitrile, 318.15 K
  solubility (mole fraction): 0.0001
In acetonitrile, 323.15 K
  solubility (mole fraction): 0.00012
In acetonitrile, 328.15 K
  solubility (mole fraction): 0.00014
In acetonitrile, 333.15 K
  solubility (mole fraction): 0.00017
In ethanol, 278.15 K
  solubility (mole fraction): 0.00012
In ethanol, 283.15 K
  solubility (mole fraction): 0.00013
In ethanol, 288.15 K
  solubility (mole fraction): 0.00014
In ethanol, 293.15 K
  solubility (mole fraction): 0.00017
In ethanol, 298.15 K
  solubility (mole fraction): 0.0002
In ethanol, 303.15 K
  solubility (mole fraction): 0.00024
In ethanol, 308.15 K
  solubility (mole fraction): 0.00028
In ethanol, 313.15 K
  solubility (mole fraction): 0.00033
In ethanol, 318.15 K
  solubility (mole fraction): 0.00038
In ethanol, 323.15 K
  solubility (mole fraction): 0.00044
In ethanol, 328.15 K
  solubility (mole fraction): 0.0005
In ethanol, 333.15 K
  solubility (mole fraction): 0.00058
In ethyl acetate, 278.15 K
  solubility (mole fraction): 4e-05
In ethyl acetate, 283.15 K
  solubility (mole fraction): 5e-05
In ethyl acetate, 288.15 K
  solubility (mole fraction): 7e-05
In ethyl acetate, 293.15 K
  solubility (mole fraction): 9e-05
In ethyl acetate, 298.15 K
  solubility (mole fraction): 0.00011
In ethyl acetate, 303.15 K
  solubility (mole fraction): 0.00014
In ethyl acetate, 308.15 K
  solubility (mole fraction): 0.00018
In ethyl acetate, 313.15 K
  solubility (mole fraction): 0.00023
In ethyl acetate, 318.15 K
  solubility (mole fraction): 0.00028
In ethyl acetate, 323.15 K
  solubility (mole fraction): 0.00034
In ethyl acetate, 328.15 K
  solubility (mole fraction): 0.00041
In ethyl acetate, 333.15 K
  solubility (mole fraction): 0.0005
In isopropanol, 278.15 K
  solubility (mole fraction): 0.00011
In isopropanol, 283.15 K
  solubility (mole fraction): 0.00012
In isopropanol, 288.15 K
  solubility (mole fraction): 0.00014
In isopropanol, 293.15 K
  solubility (mole fraction): 0.00015
In isopropanol, 298.15 K
  solubility (mole fraction): 0.00018
In isopropanol, 303.15 K
  solubility (mole fraction): 0.00021
In isopropanol, 308.15 K
  solubility (mole fraction): 0.00024
In isopropanol, 313.15 K
  solubility (mole fraction): 0.00028
In isopropanol, 318.15 K
  solubility (mole fraction): 0.00033
In isopropanol, 323.15 K
  solubility (mole fraction): 0.00037
In isopropanol, 328.15 K
  solubility (mole fraction): 0.00043
In isopropanol, 333.15 K
  solubility (mole fraction): 0.0005
In methanol, 278.15 K
  solubility (mole fraction): 0.00062
In methanol, 283.15 K
  solubility (mole fraction): 0.00066
In methanol, 288.15 K
  solubility (mole fraction): 0.00072
In methanol, 293.15 K
  solubility (mole fraction): 0.0008
In methanol, 298.15 K
  solubility (mole fraction): 0.0009
In methanol, 303.15 K
  solubility (mole fraction): 0.00102
In methanol, 308.15 K
  solubility (mole fraction): 0.00115
In methanol, 313.15 K
  solubility (mole fraction): 0.00131
In methanol, 318.15 K
  solubility (mole fraction): 0.00149
In methanol, 323.15 K
  solubility (mole fraction): 0.00166
In methanol, 328.15 K
  solubility (mole fraction): 0.00189
In methanol, 333.15 K
  solubility (mole fraction): 0.00217
In n-butanol, 278.15 K
  solubility (mole fraction): 0.0001
In n-butanol, 283.15 K
  solubility (mole fraction): 0.00011
In n-butanol, 288.15 K
  solubility (mole fraction): 0.00012
In n-butanol, 293.15 K
  solubility (mole fraction): 0.00014
In n-butanol, 298.15 K
  solubility (mole fraction): 0.00017
In n-butanol, 303.15 K
  solubility (mole fraction): 0.0002
In n-butanol, 308.15 K
  solubility (mole fraction): 0.00024
In n-butanol, 313.15 K
  solubility (mole fraction): 0.00028
In n-butanol, 318.15 K
  solubility (mole fraction): 0.00034
In n-butanol, 323.15 K
  solubility (mole fraction): 0.0004
In n-butanol, 328.15 K
  solubility (mole fraction): 0.00049
In n-butanol, 333.15 K
  solubility (mole fraction): 0.00059
In water, 278.15 K
  solubility (mole fraction): 0.00098
In water, 283.15 K
  solubility (mole fraction): 0.00105
In water, 288.15 K
  solubility (mole fraction): 0.00113
In water, 293.15 K
  solubility (mole fraction): 0.00124
In water, 298.15 K
  solubility (mole fraction): 0.00137
In water, 303.15 K
  solubility (mole fraction): 0.00154
In water, 308.15 K
  solubility (mole fraction): 0.00174
In water, 313.15 K
  solubility (mole fraction): 0.00199
In water, 318.15 K
  solubility (mole fraction): 0.00229
In water, 323.15 K
  solubility (mole fraction): 0.00261
In water, 328.15 K
  solubility (mole fraction): 0.00294
In water, 333.15 K
  solubility (mole fraction): 0.00328
